Laboratory results reported in ChEMBL document CHEMBL3991601, “The target landscape of clinical kinase drugs” (Science, 2017).
Activity calls are given as the source filed them. Cut-off read from the data, not from the text of the source, for most assays here: actives have a measured Kd and inactives only a lower limit.

What was measured:
[1] = biological target: T1, Aurora kinase A (Homo sapiens, UniProt O14965)
T1 sequence (O14965 whole entry): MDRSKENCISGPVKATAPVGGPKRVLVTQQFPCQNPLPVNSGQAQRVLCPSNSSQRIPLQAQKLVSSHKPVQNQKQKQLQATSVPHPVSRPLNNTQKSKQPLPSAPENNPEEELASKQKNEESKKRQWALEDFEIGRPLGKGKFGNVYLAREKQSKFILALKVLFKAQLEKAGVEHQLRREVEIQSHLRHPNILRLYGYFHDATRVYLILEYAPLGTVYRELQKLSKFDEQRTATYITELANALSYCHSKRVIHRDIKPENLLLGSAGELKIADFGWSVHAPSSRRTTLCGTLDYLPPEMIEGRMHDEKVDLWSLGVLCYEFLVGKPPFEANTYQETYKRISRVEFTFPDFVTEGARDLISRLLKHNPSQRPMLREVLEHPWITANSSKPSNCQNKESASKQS

[2] = biological target: T2, Mitogen-activated protein kinase kinase kinase 2 (Homo sapiens, UniProt Q9Y2U5)
T2 sequence (Q9Y2U5 whole entry): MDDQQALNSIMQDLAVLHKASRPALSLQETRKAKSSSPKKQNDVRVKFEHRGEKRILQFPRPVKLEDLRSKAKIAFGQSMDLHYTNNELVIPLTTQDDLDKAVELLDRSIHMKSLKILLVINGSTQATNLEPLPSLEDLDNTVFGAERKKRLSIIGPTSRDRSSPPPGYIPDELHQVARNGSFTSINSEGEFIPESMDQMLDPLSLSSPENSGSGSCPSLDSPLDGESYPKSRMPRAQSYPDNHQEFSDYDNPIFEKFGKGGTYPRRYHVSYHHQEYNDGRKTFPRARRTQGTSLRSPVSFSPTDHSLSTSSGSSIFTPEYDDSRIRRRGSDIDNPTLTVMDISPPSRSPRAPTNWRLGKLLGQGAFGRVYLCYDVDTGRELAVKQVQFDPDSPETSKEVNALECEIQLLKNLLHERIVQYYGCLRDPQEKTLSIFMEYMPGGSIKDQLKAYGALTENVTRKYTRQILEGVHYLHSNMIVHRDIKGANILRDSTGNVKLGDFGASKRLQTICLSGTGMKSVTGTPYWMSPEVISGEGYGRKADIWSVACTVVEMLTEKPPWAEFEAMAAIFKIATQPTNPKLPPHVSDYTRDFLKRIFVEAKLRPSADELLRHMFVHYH

[3] = biological target: T3, Structural maintenance of chromosomes protein 1A (Homo sapiens, UniProt Q14683)
T3 sequence (Q14683 whole entry): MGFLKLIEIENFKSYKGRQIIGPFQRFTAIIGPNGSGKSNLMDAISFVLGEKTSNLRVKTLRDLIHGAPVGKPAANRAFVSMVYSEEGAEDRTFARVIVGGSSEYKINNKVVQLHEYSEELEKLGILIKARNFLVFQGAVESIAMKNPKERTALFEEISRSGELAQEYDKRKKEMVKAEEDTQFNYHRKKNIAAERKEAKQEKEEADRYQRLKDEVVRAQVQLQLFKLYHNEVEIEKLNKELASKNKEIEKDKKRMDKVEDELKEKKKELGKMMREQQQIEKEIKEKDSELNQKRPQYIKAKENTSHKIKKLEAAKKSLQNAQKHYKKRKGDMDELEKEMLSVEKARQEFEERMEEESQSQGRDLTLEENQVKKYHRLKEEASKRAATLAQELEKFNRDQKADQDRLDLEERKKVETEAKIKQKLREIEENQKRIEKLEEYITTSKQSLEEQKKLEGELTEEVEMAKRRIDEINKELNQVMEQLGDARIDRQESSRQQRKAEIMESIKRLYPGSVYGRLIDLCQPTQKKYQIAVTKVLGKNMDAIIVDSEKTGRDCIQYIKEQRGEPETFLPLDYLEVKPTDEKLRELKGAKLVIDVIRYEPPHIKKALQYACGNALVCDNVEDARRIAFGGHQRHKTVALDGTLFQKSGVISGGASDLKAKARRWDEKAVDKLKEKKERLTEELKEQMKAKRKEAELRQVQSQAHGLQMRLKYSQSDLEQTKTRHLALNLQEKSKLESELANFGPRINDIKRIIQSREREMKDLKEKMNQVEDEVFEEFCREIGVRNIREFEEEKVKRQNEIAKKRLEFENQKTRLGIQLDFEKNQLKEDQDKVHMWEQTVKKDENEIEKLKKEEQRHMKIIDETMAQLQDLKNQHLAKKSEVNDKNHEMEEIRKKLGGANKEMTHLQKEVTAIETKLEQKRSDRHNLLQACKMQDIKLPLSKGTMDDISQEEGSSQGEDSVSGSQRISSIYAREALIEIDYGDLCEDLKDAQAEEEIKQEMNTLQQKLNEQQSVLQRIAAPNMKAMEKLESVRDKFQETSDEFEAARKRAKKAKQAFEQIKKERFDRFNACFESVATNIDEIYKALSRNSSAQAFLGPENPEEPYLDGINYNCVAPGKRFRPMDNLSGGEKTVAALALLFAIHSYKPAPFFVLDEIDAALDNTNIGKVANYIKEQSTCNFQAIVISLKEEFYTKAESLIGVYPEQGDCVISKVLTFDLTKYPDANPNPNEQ

[4] = biological target: T4, Serine/threonine-protein kinase 3 (Homo sapiens, UniProt Q13188)
T4 sequence (Q13188 whole entry): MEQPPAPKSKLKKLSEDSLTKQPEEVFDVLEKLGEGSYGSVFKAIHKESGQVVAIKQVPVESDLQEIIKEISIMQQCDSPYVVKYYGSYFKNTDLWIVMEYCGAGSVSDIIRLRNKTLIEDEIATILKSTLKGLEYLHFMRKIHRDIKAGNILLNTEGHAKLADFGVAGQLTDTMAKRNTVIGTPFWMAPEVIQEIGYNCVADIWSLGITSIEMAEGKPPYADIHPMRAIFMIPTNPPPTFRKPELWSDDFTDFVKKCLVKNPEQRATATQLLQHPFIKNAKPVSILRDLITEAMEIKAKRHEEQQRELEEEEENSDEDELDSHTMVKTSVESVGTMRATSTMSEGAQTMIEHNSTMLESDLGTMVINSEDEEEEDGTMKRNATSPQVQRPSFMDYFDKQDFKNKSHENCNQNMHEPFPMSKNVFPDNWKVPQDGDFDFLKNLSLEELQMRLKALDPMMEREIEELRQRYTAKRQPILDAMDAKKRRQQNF

[5] = biological target: T5, EKC/KEOPS complex subunit TP53RK (Homo sapiens, UniProt Q96S44)
T5 sequence (Q96S44 whole entry): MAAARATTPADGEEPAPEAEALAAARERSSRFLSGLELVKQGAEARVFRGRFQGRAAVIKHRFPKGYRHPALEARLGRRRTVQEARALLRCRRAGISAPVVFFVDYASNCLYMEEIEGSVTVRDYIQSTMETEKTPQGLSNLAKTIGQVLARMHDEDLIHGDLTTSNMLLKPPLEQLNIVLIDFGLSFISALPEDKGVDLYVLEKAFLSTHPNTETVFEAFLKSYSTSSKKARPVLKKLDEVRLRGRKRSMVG
Note: in the data inactive means no Kd found up to 30 µM.

Compound	Kd [1]	Kd [2]	Kd [3]	Kd [4]	Kd [5]
C[C@@H](Oc1cc(C(=O)Nc2ccc(C(=O)N3CCN(C)CC3)cc2)nnc1N)c1c(Cl)ccc(F)c1Cl	> 30 µM (inactive)	> 30 µM (inactive)	> 30 µM (inactive)	> 30 µM (inactive)	> 30 µM (inactive)
C[C@H]1CNCCCN1S(=O)(=O)c1cccc2cncc(F)c12	> 30 µM (inactive)	> 30 µM (inactive)	> 30 µM (inactive)	> 30 µM (inactive)	> 30 µM (inactive)
CC(=O)c1cnc2ccc(-c3cc(Cl)c(O)c(Cl)c3)nc2c1N[C@H]1CC[C@H](CN(C)C)CC1			> 30 µM (inactive)	0.07 µM (active)	0.311 µM (active)
CCNC(=O)C#Cc1ccc2c(c1)NC(=O)/C2=C(\Nc1ccc(CN(C)C)cc1)c1ccccc1		> 30 µM (inactive)	> 30 µM (inactive)	5.05 µM (active)	> 30 µM (inactive)
C=CC(=O)N1CCC[C@H](n2c(=O)n(-c3ccc(Oc4ccccc4)cc3)c3c(N)ncnc32)C1	> 30 µM (inactive)	> 30 µM (inactive)	> 30 µM (inactive)	> 30 µM (inactive)	> 30 µM (inactive)
Cc1nc2cc(-c3nn(C(C)C)c4ncnc(N)c34)ccc2o1	> 30 µM (inactive)	> 30 µM (inactive)	> 30 µM (inactive)	> 30 µM (inactive)	> 30 µM (inactive)
COCc1c(-c2ccc(NC(=O)Nc3cc(C(F)(F)F)ccc3F)c(F)c2)c2c(N)ncnn2c1CN1CCOCC1	> 30 µM (inactive)	> 30 µM (inactive)	> 30 µM (inactive)	> 30 µM (inactive)	> 30 µM (inactive)
COc1cc(Nc2ncc3c(n2)-c2ccc(Cl)cc2C(c2c(F)cccc2OC)=NC3)ccc1C(=O)O [ALISERTIB]		> 30 µM (inactive)	> 30 µM (inactive)		> 30 µM (inactive)
Cc1csc(-c2nnc(Nc3ccc(Oc4ncccc4-c4ccnc(N)n4)cc3)c3ccccc23)c1 [AMG-900]		1.97 µM (active)	> 30 µM (inactive)	> 30 µM (inactive)	> 30 µM (inactive)
O=C(Nc1c[nH]nc1-c1nc2cc(CN3CCOCC3)ccc2[nH]1)NC1CC1 [AT-9283]		0.277 µM (active)	> 30 µM (inactive)	> 30 µM (inactive)	> 30 µM (inactive)
CNC(=O)c1ccccc1Sc1ccc2c(/C=C/c3ccccn3)n[nH]c2c1 [AXITINIB]			> 30 µM (inactive)		> 30 µM (inactive)
NC(=O)Nc1cc(-c2cccc(F)c2)sc1C(=O)N[C@H]1CCCNC1 [AZD-7762]	> 30 µM (inactive)	> 30 µM (inactive)			> 30 µM (inactive)
C#Cc1cccc(Nc2ncnc3cc(OC)c(OCCCCCCC(=O)NO)cc23)c1 [CUDC-101]	> 30 µM (inactive)	> 30 µM (inactive)		> 30 µM (inactive)	> 30 µM (inactive)
CC(C)(C)c1nc(-c2cccc(NS(=O)(=O)c3c(F)cccc3F)c2F)c(-c2ccnc(N)n2)s1 [DABRAFENIB]	> 30 µM (inactive)	> 30 µM (inactive)	> 30 µM (inactive)		> 30 µM (inactive)
Cn1cc(C2=C(c3cn(C4CCN(Cc5ccccn5)CC4)c4ccccc34)C(=O)NC2=O)c2ccccc21 [ENZASTAURIN]			> 30 µM (inactive)		> 30 µM (inactive)
C[C@@H](Oc1cc(-n2cnc3ccc(CN4CCN(C)CC4)cc32)sc1C(N)=O)c1ccccc1C(F)(F)F [GSK-461364]			> 30 µM (inactive)		> 30 µM (inactive)
CCn1cc(-c2ccnc3[nH]c(-c4cccc(CN(C)C)c4)cc23)c(-c2ccc(NC(=O)N(C)C)cc2)n1 [GSK-1070916]		> 30 µM (inactive)	> 30 µM (inactive)	> 30 µM (inactive)	> 30 µM (inactive)
O=C(Nc1cc(C(F)(F)F)cc(C(F)(F)F)c1)c1cc(Cl)ccc1O [IMD-0354]	> 30 µM (inactive)	> 30 µM (inactive)	> 30 µM (inactive)		> 30 µM (inactive)
Cc1[nH]c(/C=C2\C(=O)Nc3ccccc32)c(C)c1CCC(=O)O [ORANTINIB]		> 30 µM (inactive)	> 30 µM (inactive)		> 30 µM (inactive)
NC(=O)c1c(OCc2c(F)cc(Br)cc2F)nsc1NC(=O)NCCCCN1CCCC1 [OSI-632]			> 30 µM (inactive)		> 30 µM (inactive)
CC(=O)NCC(=O)N1[C@@H]2CC[C@H]1c1ccc(Nc3ncc(C(F)(F)F)c(NC4CCC4)n3)cc12 [PF-03814735]		0.164 µM (active)	> 30 µM (inactive)		> 30 µM (inactive)
O=C(NOCCO)c1cc(CN2OCCCC2=O)c(F)c(F)c1Nc1ccc(I)cc1F [RO-4987655]			> 30 µM (inactive)		> 30 µM (inactive)
N#CC[C@H](C1CCCC1)n1cc(-c2ncnc3[nH]ccc23)cn1 [RUXOLITINIB]			> 30 µM (inactive)		> 30 µM (inactive)
Cn1cc(-c2cnn3c(N)c(Br)c([C@@H]4CCCNC4)nc23)cn1 [SCH-900776]	> 30 µM (inactive)	> 30 µM (inactive)		> 30 µM (inactive)	> 30 µM (inactive)
CCS(=O)(=O)c1cccc(-c2cc(C(=O)NC3CCN(C)CC3)c(C)c3[nH]c4ncc(C)cc4c23)c1 [TAK-901]		> 30 µM (inactive)	> 30 µM (inactive)	2.76 µM (active)	> 30 µM (inactive)
Cn1ncc(Cl)c1-c1cc(C(=O)N[C@H](CN)Cc2ccc(F)c(F)c2)oc1Cl [UPROSERTIB]	> 30 µM (inactive)	> 30 µM (inactive)		> 30 µM (inactive)	> 30 µM (inactive)
